According to publication PMC10643210, “Expanding structural diversity of 5′-aminouridine moiety of sansanmycin via mutational biosynthesis” (Frontiers in Bioengineering and Biotechnology, 2023):
In brackets after ≈: the same amount, converted by molar mass.

Tests used:
M. tuberculosis M6600 = details: clinical multidrug-resistant isolate; for MIC M. tuberculosis M6600: Alamar blue, 7H9 broth, triplicate wells
M. tuberculosis M3551 = details: clinical multidrug-resistant isolate; for MIC M. tuberculosis M3551: Alamar blue, 7H9 broth, triplicate wells
M. tuberculosis M9483 = details: clinical multidrug-resistant isolate; for MIC M. tuberculosis M9483: Alamar blue, 7H9 broth, triplicate wells

| SMILES | M. tuberculosis M6600, resistant/sensitive class of control drugs (M. tuberculosis M6600) | M. tuberculosis M3551, resistant/sensitive class of control drugs (M. tuberculosis M3551) | M. tuberculosis M9483, resistant/sensitive class of control drugs (M. tuberculosis M9483) | MIC M. tuberculosis M6600 (M. tuberculosis M6600) | MIC M. tuberculosis M3551 (M. tuberculosis M3551) | MIC M. tuberculosis M9483 (M. tuberculosis M9483) |
| --- | --- | --- | --- | --- | --- | --- |
| NNC(=O)c1ccncc1 [INH, isoniazid] | R | R | R | – | – | – |
| CC(=O)NC[C@H]1CN(c2ccc(N3CCOCC3)c(F)c2)C(=O)O1 [LZD, linezolid] | S (sensitive to LZD, at 2.0 μg/mL) | S (sensitive to LZD, at 2.0 μg/mL) | S (sensitive to LZD, at 2.0 μg/mL) | – | – | – |
| CO[C@H]1/C=C/O[C@@]2(C)Oc3c(C)c(O)c4c(O)c(c(/C=N/N5CCN(C)CC5)c(O)c4c3C2=O)NC(=O)/C(C)=C\C=C\[C@H](C)[C@H](O)[C@@H](C)[C@@H](O)[C@@H](C)[C@H](OC(C)=O)[C@@H]1C [RIF, rifampicin] | R | R | R | – | – | – |
| CSCC[C@H](NC(=O)N[C@@H](Cc1c[nH]c2ccccc12)C(=O)O)C(=O)N[C@H](C(=O)N/C=C1/C[C@@H](O)[C@H](n2ccc(=O)[nH]c2=O)O1)[C@H](C)N(C)C(=O)[C@@H](N)Cc1cccc(O)c1 [SS-A, sansanmycin A] | – | – | – | 16 µg/mL (≈ 18.5 µM) | 16 µg/mL (≈ 18.5 µM) | 16 µg/mL (≈ 18.5 µM) |
| CSCC[C@H](NC(=O)N[C@@H](Cc1c[nH]c2ccccc12)C(=O)O)C(=O)N[C@H](C(=O)NC[C@H]1O[C@@H](n2ccc(=O)[nH]c2=O)C[C@@H]1O)[C@H](C)N(C)C(=O)[C@@H](N)Cc1cccc(O)c1 [SS-KK-1] | – | – | – | >64 µg/mL | >64 µg/mL | >64 µg/mL |
| CSCC[C@H](NC(=O)N[C@@H](Cc1c[nH]c2ccccc12)C(=O)O)C(=O)N[C@H](C(=O)NC[C@H]1O[C@@H](n2ccc(=O)[nH]c2=O)C[C@@H]1O)[C@H](C)N(C)C(=O)[C@@H](N)Cc1ccc(O)cc1 [SS-KK-2] | – | – | – | 64 µg/mL (≈ 73.9 µM) | 64 µg/mL (≈ 73.9 µM) | 32 µg/mL (≈ 37 µM) |
